Measured values taken from patent EP0515796A1, “5-Aminoacyl-5,10-dihydro-11H-dibenzo(b,e)(1,4)diazepin-11-ones, processes for their preparation, and their use as medicaments” (ARZNEIMITTELWERK DRESDEN GmbH, priority 1991, dated 1992).
Counter-ions that a name gives are not always drawn. Like-named read-outs stand apart in the source and are kept apart here. Marks after values point to notes of the source that are not given here.

Legend:
CaCl2-Arrhythmie = assay: CaCl2-induced arrhythmia in the rat (antifibrillatory effect); type: in vivo, Ratte; conditions: for ED50: read-out: CaCl2-Arrhythmie Ratte, ED50
Ratte [1] = assay: in vivo; type: in vivo
in vivo = type: in vivo; conditions: in vivo; for LD50: intravenous use according to b33, values in brackets = confidence range, read-out: akute Toxizität Ratte, LD50; for selectivity ratio: therapeutic breadth, read-out: Q LD50/ED50
Ratte [2] = conditions: rat, values in brackets = confidence range, cited from earlier work
[3] = rat, antifibrillatory effect, values in brackets = confidence range
[4] = rat LD50 / rat CaCl2-arrhythmia ED50

| Molecule | ED50 (CaCl2-Arrhythmie; [3]) | LD50 (in vivo; rat) | selectivity ratio (in vivo; [4]) | other results |
| --- | --- | --- | --- | --- |
| 5-(6-Diethylamino-hexanoyl)-5,10-dihydro-10-methyl-11H-dibenzo/b,e//1,4/diazepin-11-on.HCl.0,5 H₂O [Beispiel 4] | – | – | – | CaCl2-Arrhythmie Ratte, ED50 (CaCl2-Arrhythmie; [3]): 0,033 (0,011 - 0,10) mg/kg; akute Toxizität Ratte, LD50 (Ratte [1]; rat, intravenous use according to b33, values in brackets = confidence range): 78 (73 - 84) mg/kg; Q LD50/ED50 (Ratte [1]; therapeutic breadth, rat LD50 / rat CaCl2-arrhythmia ED50): 2364 |
| CN1C(=O)c2ccccc2N(C(=O)CCCCCNC2CCCCC2)c2ccc(Cl)cc21 [Beispiel 8, 8-Chlor-5-(6-cyclohexylamino-hexanoyl)-5,10-dihydro-10-methyl-11H-dibenzo/b,e//1,4/diazepin-11-on.HCl] | 0.33 mg/kg | 35 mg/kg | 106 | – |
| CC(C)N(CCC(C(N)=O)(c1ccccc1)c1ccccn1)C(C)C (racemic) [Disopyramid] | – | – | – | ED50 (CaCl2-Arrhythmie; Rattus norvegicus): 1.3 mg/kg; selectivity ratio (in vivo; rat, worked out with the cited LD50 of m (male) rats): 55; selectivity ratio (in vivo; rat, worked out with the cited LD50 of w (female) rats): 50; akute Toxizität Ratte, LD50 (Ratte [2]; m (male), literature value from the Palpitin (R) brochure, Gedeon Richter): m 72 (60 - 80) * mg/kg; akute Toxizität Ratte, LD50 (Ratte [2]; w (female), literature value (footnote mark printed only on the m line)): w 66 (50 - 110) mg/kg |
| CCN(CC)CC(=O)Nc1c(C)cccc1C [Lidokain] | 3.1 mg/kg | – | – | – |
| CN1C(=O)c2ccccc2N(C(=O)CCCCCNC2CCCCC2)c2ccccc21 [Beispiel 7, 5-(6-Cyclohexylamino-hexanoyl)-5,10-dihydro-10-methyl-11H-dibenzo/b,e//1,4/diazepin-11-on.HCl] | 0.025 mg/kg | 32 mg/kg | 1280 | – |
| C=CC1CN2CCC1CC2C(O)c1ccnc2ccc(OC)cc12 (stereo not drawn) [Chinidin] | 2.7 mg/kg | 48 mg/kg | – | selectivity ratio (in vivo; rat, rat LD50 / rat CaCl2-arrhythmia ED50): 18 |
